Results taken from patent US20140249135A1, “PIM KINASE INHIBITORS AND METHODS OF THEIR USE” (NOVARTIS AG, priority 2007, published 2014).
Read-outs that look alike come from different tables or passages of the source.

Experiments:
Pim1 kinase = Pim1 kinase (Homo sapiens, UniProt P11309); experiment: Pim1 ATP depletion assay; assay type: biochemical; conditions: Pim1 ATP depletion assay;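 note: Luciferase-luciferin luminescence readout of residual ATP after PIM1 transfers phosphate to a peptide substrate, 40 µM ATP added, reaction run to roughly half ATP consumption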
Pim2 kinase = Pim2 kinase (Homo sapiens, UniProt Q9P1W9); experiment: Pim2 ATP depletion assay; assay type: biochemical;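 note: Luciferase-based luminescent readout of ATP remaining after PIM2 phosphorylates a BAD peptide, final 5 nM enzyme, 4 µM ATP, 10 µM peptide, 2.5% DMSO, run to roughly half ATP consumption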
Pim3 kinase = Pim3 kinase (Homo sapiens, UniProt Q86V86); experiment: Pim3 ATP depletion assay; assay type: biochemical
HEL 92.1.7 cells = experiment: Cell proliferation assay (CellTiter-Glo), HEL 92.1.7; assay type: cell-based; conditions: Homo sapiens, read-out: EC50 (μM) HEL 92.1.7
Protocol: HEL 92.1.7 cells (ATTC No. TIB-180, an erythroleukemia line derived from malignant peripheral blood), MV4-11 cells (ATCC No. CRL-9591, a human acute monocytic leukemia line) and PC3 cells (ATCC No. CRL-1435, a human prostatic adenocarcinoma line) were cultured in RPMI1640 supplemented with 10% FBS, sodium pyruvate and antibiotics. Cells were plated in the same medium at a density of 1000 cells per well into 96 well tissue culture plates, with outside wells vacant, on the day of assay.
Test compounds supplied in DMSO were diluted into DMSO at 500 times the desired final concentrations before dilution into culture media to 2 times final concentrations. Equal volumes of 2× compounds were added to the cells in 96 well plates and incubated at 37° C. for 3 days.
After 3 days plates were equilibrated to room temperature and equal volume of CellTiter-Glow Reagent (Promega) was added to the culture wells. The plates were agitated briefly and luminescent signal was measured with luminometer. The percent inhibition of the signal seen in cells treated with DMSO alone vs. cells treated with control compound was calculated and used to determine EC50 values (i.e., the concentration of a test compound that is required to obtain 50% of the maximum effect in the cells) for tested compounds, as shown in Example 763.

[1] = biological target: T1, human full length PKCE enzyme (Homo sapiens, UniProt Q02156); experiment: In vitro PKCE assay; assay type: biochemical; conditions: 10 nM enzyme, 40 uM peptide substrate, 20 uM ATP, KinaseGlo Plus readout; read-out: PKCε IC50
T1 construct: human full length PKCE enzyme purchased from InVitrogen; purchased InVitrogen
T1 sequence (Q02156 1-737): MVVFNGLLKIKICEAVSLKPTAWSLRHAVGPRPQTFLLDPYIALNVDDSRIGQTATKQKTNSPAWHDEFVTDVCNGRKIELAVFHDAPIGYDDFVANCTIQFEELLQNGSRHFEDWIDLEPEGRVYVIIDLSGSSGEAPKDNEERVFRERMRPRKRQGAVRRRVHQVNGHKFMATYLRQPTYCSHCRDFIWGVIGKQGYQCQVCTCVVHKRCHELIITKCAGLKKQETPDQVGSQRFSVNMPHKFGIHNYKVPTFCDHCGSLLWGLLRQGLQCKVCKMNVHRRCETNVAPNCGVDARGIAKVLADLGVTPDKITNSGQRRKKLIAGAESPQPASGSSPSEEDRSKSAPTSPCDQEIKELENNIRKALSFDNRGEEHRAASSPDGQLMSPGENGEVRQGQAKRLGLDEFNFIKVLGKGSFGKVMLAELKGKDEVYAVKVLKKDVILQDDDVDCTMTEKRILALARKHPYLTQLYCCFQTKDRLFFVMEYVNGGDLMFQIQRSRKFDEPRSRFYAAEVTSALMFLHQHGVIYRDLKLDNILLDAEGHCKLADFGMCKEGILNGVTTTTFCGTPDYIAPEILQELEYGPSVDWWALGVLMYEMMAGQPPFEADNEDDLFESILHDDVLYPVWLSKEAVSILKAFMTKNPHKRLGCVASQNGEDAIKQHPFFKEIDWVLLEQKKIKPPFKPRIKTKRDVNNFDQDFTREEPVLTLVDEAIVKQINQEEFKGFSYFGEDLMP

KDR kinase = KDR kinase (Homo sapiens, UniProt P35968); experiment: KDR AlphaScreen assay; conditions: KDR IC50 (μM)
Sequence of KDR kinase (P35968 20-1356): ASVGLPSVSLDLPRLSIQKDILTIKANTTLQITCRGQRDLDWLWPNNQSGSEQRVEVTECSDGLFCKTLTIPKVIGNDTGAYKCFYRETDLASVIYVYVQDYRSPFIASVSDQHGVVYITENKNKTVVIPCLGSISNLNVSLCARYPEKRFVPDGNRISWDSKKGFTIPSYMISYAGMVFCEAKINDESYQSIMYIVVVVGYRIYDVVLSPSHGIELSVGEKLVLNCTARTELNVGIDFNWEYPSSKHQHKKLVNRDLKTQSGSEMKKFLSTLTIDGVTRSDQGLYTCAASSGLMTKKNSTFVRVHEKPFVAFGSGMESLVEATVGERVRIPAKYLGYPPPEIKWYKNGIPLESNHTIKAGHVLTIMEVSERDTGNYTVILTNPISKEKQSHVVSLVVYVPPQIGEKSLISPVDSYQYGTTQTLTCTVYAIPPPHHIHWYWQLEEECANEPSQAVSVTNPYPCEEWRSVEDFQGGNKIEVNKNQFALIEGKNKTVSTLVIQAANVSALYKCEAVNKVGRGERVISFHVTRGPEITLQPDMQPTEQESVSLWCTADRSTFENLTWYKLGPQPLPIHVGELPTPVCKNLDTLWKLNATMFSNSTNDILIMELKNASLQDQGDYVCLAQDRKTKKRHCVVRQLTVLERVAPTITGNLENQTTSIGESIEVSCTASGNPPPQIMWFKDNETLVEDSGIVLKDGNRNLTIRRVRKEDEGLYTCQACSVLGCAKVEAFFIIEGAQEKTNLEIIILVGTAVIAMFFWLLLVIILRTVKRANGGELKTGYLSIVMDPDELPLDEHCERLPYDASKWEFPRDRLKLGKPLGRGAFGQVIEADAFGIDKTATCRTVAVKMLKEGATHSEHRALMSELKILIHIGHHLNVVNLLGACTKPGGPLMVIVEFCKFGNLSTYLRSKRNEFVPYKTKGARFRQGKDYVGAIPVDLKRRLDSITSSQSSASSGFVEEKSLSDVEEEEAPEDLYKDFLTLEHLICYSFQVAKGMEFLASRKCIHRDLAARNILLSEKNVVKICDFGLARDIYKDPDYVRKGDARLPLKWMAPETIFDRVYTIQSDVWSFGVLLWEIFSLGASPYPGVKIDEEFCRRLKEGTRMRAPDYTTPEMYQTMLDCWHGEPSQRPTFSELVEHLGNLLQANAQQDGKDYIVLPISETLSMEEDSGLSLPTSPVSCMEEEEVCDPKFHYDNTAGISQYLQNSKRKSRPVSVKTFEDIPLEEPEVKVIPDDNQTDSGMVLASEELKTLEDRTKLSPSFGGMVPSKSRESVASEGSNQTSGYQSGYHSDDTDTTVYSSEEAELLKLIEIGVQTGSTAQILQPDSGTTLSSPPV

Sequence of Pim1 kinase (P11309 whole entry): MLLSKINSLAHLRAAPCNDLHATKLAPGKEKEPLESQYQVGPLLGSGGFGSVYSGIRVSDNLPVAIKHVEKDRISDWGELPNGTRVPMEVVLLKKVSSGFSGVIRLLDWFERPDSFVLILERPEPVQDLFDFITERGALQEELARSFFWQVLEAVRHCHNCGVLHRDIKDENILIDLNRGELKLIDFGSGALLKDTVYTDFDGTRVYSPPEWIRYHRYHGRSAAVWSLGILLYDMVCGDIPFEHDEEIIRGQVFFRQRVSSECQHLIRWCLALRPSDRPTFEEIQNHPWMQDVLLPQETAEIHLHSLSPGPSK
Sequence of Pim2 kinase (Q9P1W9 whole entry): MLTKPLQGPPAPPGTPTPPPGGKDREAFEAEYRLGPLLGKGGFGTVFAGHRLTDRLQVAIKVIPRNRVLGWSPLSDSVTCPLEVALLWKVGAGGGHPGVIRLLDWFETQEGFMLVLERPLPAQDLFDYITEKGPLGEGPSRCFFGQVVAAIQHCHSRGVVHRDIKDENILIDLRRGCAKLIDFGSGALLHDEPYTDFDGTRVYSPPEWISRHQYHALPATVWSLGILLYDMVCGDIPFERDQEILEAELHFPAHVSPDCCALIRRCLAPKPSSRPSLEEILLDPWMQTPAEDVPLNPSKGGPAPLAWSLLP

Row | SMILES | IC50 (Pim1 kinase; read-out: IC50 (μM) PIM1) | IC50 (Pim2 kinase; read-out: IC50 (μM) PIM2) | IC50 (Pim3 kinase; read-out: IC50 (μM) PIM3) | IC50 [1] | IC50 (KDR kinase) | IC50 (Pim1 kinase; read-out: PIM1 IC50) | IC50 (Pim2 kinase; read-out: PIM2 IC50) | IC50 (Pim3 kinase; read-out: PIM3 IC50) | EC50 (HEL 92.1.7 cells)
1 | Cc1ccc(-c2ccc(N)c(C(=O)Nc3cnccc3N3CCC[C@H](N)C3)n2)c(F)c1 [Example 432, 3-amino-6-(2-fluoro-4-methyl-phenyl)-pyridine-2-carboxylic acid ((S)-3-amino-3,4,5,6-tetra-hydro-2H-[1,4′]bipyridinyl-3′-yl)-amide] | – | – | – | – | – | – | – | – | 1 to 5 µM
2 | Nc1ccc(-c2cnc(N)c(C(F)(F)F)c2)nc1C(=O)Nc1cnccc1N1CCC[C@H](N)C1 [Example 482, 5,6′-Diamino-5′-trifluoromethyl-[2,3′]bipyridinyl-6-carboxylic acid (3-amino-3,4,5,6-tetrahydro-2H-[1,4′]bipyridinyl-3′-yl)-amide] | < 1 µM | < 1 µM | < 1 µM | > 25000 nM | 10 to 25 µM | – | – | – | –
3 | Nc1cc(C(F)(F)F)c(-c2ccc(N)c(C(=O)Nc3cnccc3N3CCC[C@H](N)C3)n2)cn1 [Example 483, 5,6′-Diamino-4′-trifluoromethyl-[2,3′]bipyridinyl-6-carboxylic acid (3-amino-3,4,5,6-tetrahydro-2H-[1,4′]bipyridinyl-3′-yl)-amide] | < 1 µM | < 1 µM | < 1 µM | 10000 to 25000 nM | > 25 µM | – | – | – | –
4 | Nc1ccc(-c2ccc(N)c(C(=O)Nc3cnccc3N3CCC[C@H](N)C3)n2)c(F)n1 [Example 484, 5,6′-Diamino-2′-fluoro-[2,3′]bi-pyridinyl-6-carboxylic acid (3-amino-3,4,5,6-tetrahydro-2H-[1,4′]bipyridinyl-3′-yl)-amide] | < 1 µM | < 1 µM | < 1 µM | 10000 to 25000 nM | > 25 µM | – | – | – | –
5 | COc1nc(N)ncc1-c1ccc(N)c(C(=O)Nc2cnccc2N2CCC[C@H](N)C2)n1 [Example 485, 3-Amino-6-(2-amino-4-methoxy-pyrimidin-5-yl)-pyridine-2-carboxylic acid (3-amino-3,4,5,6-tetrahydro-2H-[1,4′]bipyridinyl-3′-yl)-amide] | < 1 µM | < 1 µM | < 1 µM | > 25000 nM | 10 to 25 µM | – | – | – | –
6 | Nc1ccc(-c2cccnc2F)nc1C(=O)Nc1ccncc1N1CCCC(N)C1 (stereo not shown) [Example 552, 5-Amino-2′-fluoro-[2,3′]bi-pyridinyl-6-carboxylic acid (3-amino-3,4,5,6-tetrahydro-2H-[1,3′]bipyridinyl-4′-yl)-amide] | – | – | – | 1000 to 10000 nM | 1 to 10 µM | < 1 µM | < 1 µM | < 1 µM | –
7 | CN1CCC(NC2CCCN(c3ccncc3NC(=O)c3nc(Br)cnc3N)C2)CC1 (stereo not shown) [Example 597, 3-amino-6-bromo-N-(4-(3-(1-methylpiperidin-4-ylamino)piperidin-1-yl)pyridin-3-yl)pyrazine-2-carboxamide] | – | – | – | 1000 to 10000 nM | > 25 µM | < 1 µM | 1 to 10 µM | < 1 µM | –
8 | Nc1ncc(Br)nc1C(=O)Nc1cnccc1N1CCCC(NCc2ccccc2)C1 (stereo not shown) [Example 598, 3-amino-6-bromo-pyrazine-2-carboxylic acid (3-benzylamino-3,4,5,6-tetrahydro-2H-[1,4′]bi-pyridinyl-3′-yl)-amide] | – | – | – | 1000 to 10000 nM | 1 to 10 µM | < 1 µM | 1 to 10 µM | < 1 µM | –

The next lines start with results.

Row | IC50 (Pim1 kinase; read-out: IC50 (μM) PIM1) | IC50 (Pim2 kinase; read-out: IC50 (μM) PIM2) | IC50 (Pim3 kinase; read-out: IC50 (μM) PIM3) | IC50 [1] | IC50 (KDR kinase) | IC50 (Pim1 kinase; read-out: PIM1 IC50) | IC50 (Pim2 kinase; read-out: PIM2 IC50) | IC50 (Pim3 kinase; read-out: PIM3 IC50) | SMILES | EC50 (HEL 92.1.7 cells)
9 | < 1 µM | < 1 µM | < 1 µM | – | – | – | – | – | Nc1ncc(Br)nc1C(=O)Nc1cnccc1N1CCCC(N)C1 (stereo not shown) [Example 181, 3-amino-N-[4-(3-aminopiperidin-1-yl)pyridin-3-yl]-6-bromopyrazine-2-carboxamide] | < 1 µM
10 | < 1 µM | < 1 µM | < 1 µM | – | – | – | – | – | CS(=O)(=O)c1ccc(-c2ccc(N)c(C(=O)Nc3cnccc3N3CCC[C@H](N)C3)n2)cc1 [Example 319, 3-amino-6-(4-methane-sulfonyl-phenyl)-pyridine-2-carboxylic acid ((S)-3-amino-3,4,5,6-tetrahydro-2H-[1,4′]bi-pyridinyl-3′-yl)-amide] | 1 to 5 µM
11 | < 1 µM | < 1 µM | < 1 µM | – | – | – | – | – | Cc1ccc(S(=O)(=O)N2CCCC2)cc1-c1ccc(N)c(C(=O)Nc2cnccc2N2CCC[C@H](N)C2)n1 [Example 321, 3-amino-6-[2-methyl-5-(pyrrolidine-1-sulfonyl)-phenyl]-pyridine-2-carboxylic acid ((S)-3-amino-3,4,5,6-tetrahydro-2H-[1,4′]bi-pyridinyl-3′-yl)-amide] | 1 to 5 µM
12 | < 1 µM | < 1 µM | < 1 µM | – | – | – | – | – | Nc1ccc(-c2cc(C(=O)NC3CCCCC3)ccc2F)nc1C(=O)Nc1cnccc1N1CCC[C@H](N)C1 [Example 324, 3-amino-6-(5-cyclohexyl-carbamoyl-2-fluoro-phenyl)-pyridine-2-carboxylic acid ((S)-3-amino-3,4,5,6-tetra-hydro-2H-[1,4′]bipyridinyl-3′-yl)-amide] | < 1 µM
13 | < 1 µM | < 1 µM | < 1 µM | – | – | – | – | – | COC(=O)c1ccc(-c2ccc(N)c(C(=O)Nc3cnccc3N3CCC[C@H](N)C3)n2)c(F)c1 [Example 325, 4-[5-amino-6-((S)-3-amino-3,4,5,6-tetrahydro-2H-[1,4′]bi-pyridinyl-3′-ylcarbamoyl)-pyridin-2-yl]-3-fluoro-benzoic acid methyl ester] | 1 to 5 µM
14 | < 1 µM | < 1 µM | < 1 µM | – | – | – | – | – | CCCNC(=O)c1ccc(F)c(-c2ccc(N)c(C(=O)Nc3cnccc3N3CCC[C@H](N)C3)n2)c1 [Example 326, 3-amino-6-(2-fluoro-5-propyl-carbamoyl-phenyl)-pyridine-2-carboxylic acid ((S)-3-amino-3,4,5,6-tetrahydro-2H-[1,4′]bipyridinyl-3′-yl)-amide] | 1 to 5 µM
15 | < 1 µM | < 1 µM | < 1 µM | – | – | – | – | – | CCNC(=O)c1ccc(F)c(-c2ccc(N)c(C(=O)Nc3cnccc3N3CCC[C@H](N)C3)n2)c1 [Example 327, 3-amino-6-(5-ethylcarbamoyl-2-fluoro-phenyl)-pyridine-2-carboxylic acid ((S)-3-amino-3,4,5,6-tetrahydro-2H-[1,4′]bi-pyridinyl-3′-yl)-amide] | 1 to 5 µM
16 | < 1 µM | < 1 µM | < 1 µM | – | – | – | – | – | CCN(CC)S(=O)(=O)c1ccc(C)c(-c2ccc(N)c(C(=O)Nc3cnccc3N3CCC[C@H](N)C3)n2)c1 [Example 329, 3-amino-6-(5-diethyl-sulfamoyl-2-methyl-phenyl)-pyridine-2-carboxylic acid ((S)-3-amino-3,4,5,6-tetra-hydro-2H-[1,4′]bipyridinyl-3′-yl)-amide] | 5 to 10 µM
17 | < 1 µM | < 1 µM | < 1 µM | – | – | – | – | – | Cc1ccc(S(=O)(=O)N(C)C)cc1-c1ccc(N)c(C(=O)Nc2cnccc2N2CCC[C@H](N)C2)n1 [Example 330, 3-amino-6-(5-dimethyl-sulfamoyl-2-methyl-phenyl)-pyridine-2-carboxylic acid ((S)-3-amino-3,4,5,6-tetra-hydro-2H-[1,4′]bipyridinyl-3′-yl)-amide] | > 10 µM
18 | < 1 µM | < 1 µM | < 1 µM | – | – | – | – | – | Nc1ccc(-c2cccnc2Cl)nc1C(=O)Nc1cnccc1N1CCC[C@H](N)C1 [Example 331, 5-amino-2′-chloro-[2,3′]bi-pyridinyl-6-carboxylic acid ((S)-3-amino-3,4,5,6-tetra-hydro-2H-[1,4′]bipyridinyl-3′-yl)-amide] | 1 to 5 µM
